In the assay the target is T1, GCS enzyme contained within Golgi preparations isolated from human A375 malignant melanoma skin cells (Homo sapiens, UniProt Q16739).
T1 construct: endogenous levels of GCS enzyme contained within Golgi preparations isolated from human A375 malignant melanoma skin cells; endogenous in cells; host or cells: A375 human malignant melanoma cells (crude Golgi preparation)
T1 sequence (Q16739 1-394): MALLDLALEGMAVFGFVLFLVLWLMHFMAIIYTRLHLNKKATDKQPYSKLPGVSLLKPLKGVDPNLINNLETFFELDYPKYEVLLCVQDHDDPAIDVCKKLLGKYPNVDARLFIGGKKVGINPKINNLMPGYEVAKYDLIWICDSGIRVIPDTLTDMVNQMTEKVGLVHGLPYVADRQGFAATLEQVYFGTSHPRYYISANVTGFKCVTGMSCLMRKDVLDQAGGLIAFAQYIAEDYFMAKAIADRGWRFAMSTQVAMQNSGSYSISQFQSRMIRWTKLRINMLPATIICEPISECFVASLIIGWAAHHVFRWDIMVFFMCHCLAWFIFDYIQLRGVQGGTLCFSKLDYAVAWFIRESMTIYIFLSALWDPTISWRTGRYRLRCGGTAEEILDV
The assay can be described thus: UDP-Glo glucosylceramide synthase biochemical assay. The conditions noted are these: crude Golgi preparation from A375 cells; C6 ceramide and UDP-glucose substrates; 20 h incubation at room temperature; UDP detected by luminescence. An excerpt:
UDP-Glo™ Glucosylceramide Synthase Biochemical Assay
A UDP-Glo™ glucosylceramide synthase biochemical assay was utilized to evaluate the effect of test compounds on the activity of endogenous levels of GCS enzyme contained within Golgi preparations isolated from human A375 malignant melanoma skin cells. The UDP-Glo™ glucosylceramide synthase assay uses UDP-Glucose as a nucleotide-glycosyl donor and ceramide as substrate acceptor molecules. In the reaction, glucosylceramide synthase (GCS) transfers glucose from UDP-Glucose to ceramide. Glucosylceramide and UDP are released as products.
Using Promega's UDP-Glo™ Glycosyltransferase assay kit (Promega Corporation, Madison, WI, USA (Promega)), GCS activity was indirectly measured by detecting the amount of UDP produced. An aliquot of GCS enzyme (1.5 μg crude golgi preparation, total protein) and titrated test compound were aliquoted to each well and incubated for 30 minutes at room temperature. […] An equivalent volume of substrate mixture was then added to each well. Following a 20 h incubation at room temperature to allow for GCS turnover of substrate, an equal volume of UDP detection reagent (Promega) was added to each well and incubated for an additional 75 minutes at room temperature to simultaneously convert the accumulated UDP product into ATP and generate light in a luciferase reaction. The generated light was detected using a luminometer. […] luminescence values (RLUs) were normalized to mean “min” and “max” effects, as determined on each plate. […] Values for % Emax and EC50 were determined by best-fitting the normalized data to a curve in Activity Base along a four-parameter logistic nonlinear regression (4PL) model (based on the Levenberg-Marquardt algorithm and defined by the equation below):
[formula] where: n is 4 PMin (bottom of the curve); m is 4 PMax (top of the curve); i is IP (inflection point of curve); and p is slope. See Levenberg, K., “A Method for the Solution of Certain Problems in Least Squares”, Quart. Appl. Math. […] Math.

Molecule `Cc1cnc2c(c1C(=O)Nc1cccc3c1C(=O)N(C(C1CC1)C(C)(C)O)C3)OCO2` (single isomer, unassigned) [Compound 169, (R or S)—N-(2-(1-Cyclopropyl-2-hydroxy-2-methylpropyl)-3-oxoisoindolin-4-yl)-6-methyl-[1,3]dioxolo[4,5-b]pyridine-7-carboxamide] registered an EC50 of 0.4 nM.

Take `CC(C)(O)C(C1CC1)N1Cc2cccc(/C=C/c3ccnc4c3CCC4)c2C1=O` (single isomer, unassigned) [Compound 171, (R or S)-(E)-2-(1-Cyclopropyl-2-hydroxy-2-methylpropyl)-7-(2-(6,7-dihydro-5H-cyclopenta[b]pyridin-4-yl)vinyl)isoindolin-1-one]: the concentration for a half-maximal effect (EC50) stood at 230 nM.

`CC(C)(O)C(C1CC1)N1Cc2cccc(C#Cc3ccnc4c3CCC4)c2C1=O` (single isomer, unassigned) [Compound 172, (R or S)-2-(1-Cyclopropyl-2-hydroxy-2-methylpropyl)-7-((6,7-dihydro-5H-cyclopenta[b]pyridin-4-yl)ethynyl)isoindolin-1-one] returned a half-maximal effective concentration (EC50) of 9.7 nM.

For `CC(C)(O)C(C1CC1)N1Cc2cccc(CCc3ccnc4c3CCC4)c2C1=O` (single isomer, unassigned) [Compound 173, (R or S)-2-(1-Cyclopropyl-2-hydroxy-2-methylpropyl)-7-(2-(6,7-dihydro-5H-cyclopenta[b]pyridin-4-yl)ethyl)isoindolin-1-one], the EC50 was 120 nM.

As for `CC(C)(O)C(C1CC1)N1Cc2cccc(/C=C/c3c(Cl)cnc4c3OCO4)c2C1=O` (single isomer, unassigned) [Compound 174, (R or S)-(E)-7-(2-(6-Chloro-[1,3]dioxolo[4,5-b]pyridin-7-yl)vinyl)-2-(1-cyclopropyl-2-hydroxy-2-methylpropyl)isoindolin-1-one], the EC50 is 6.8 nM.

`Cc1cnc2c(c1/C=C/c1cccc3c1C(=O)N(C(C1CC1)C(C)(C)O)C3)OCO2` (single isomer, unassigned) [Compound 175, (R or S)-(E)-2-(1-Cyclopropyl-2-hydroxy-2-methylpropyl)-7-(2-(6-methyl-[1,3]dioxolo[4,5-b]pyridin-7-yl)vinyl)isoindolin-1-one] returned a concentration giving a half-maximal response (EC50) of 27 nM.

Molecule `Cc1cnc2c(c1CCc1cccc3c1C(=O)N(C(C1CC1)C(C)(C)O)C3)OCO2` (single isomer, unassigned) [Compound 176, (R or S)-2-(1-Cyclopropyl-2-hydroxy-2-methylpropyl)-7-(2-(6-methyl-[1,3]dioxolo[4,5-b]pyridin-7-yl)ethyl)isoindolin-1-one] gave an EC50 of 14 nM.

With `CC(C)(O)C(C1CC1)N1Cc2cccc(COc3c(Cl)cnc4c3OCO4)c2C1=O` (single isomer, unassigned) [Compound 177, (R or S)-7-(((6-chloro-[1,3]dioxolo[4,5-b]pyridin-7-yl)oxy)methyl)-2-(1-cyclopropyl-2-hydroxy-2-methylpropyl)isoindolin-1-one], a half-maximal response (EC50) required 28 nM.

`Cc1cnc2c(c1NCc1cccc3c1C(=O)N(C(C1CC1)C(C)(C)O)C3)OCO2` (single isomer, unassigned) [Compound 178, (R or S)-2-(1-Cyclopropyl-2-hydroxy-2-methylpropyl)-7-(((6-methyl-[1,3]dioxolo[4,5-b]pyridin-7-yl)amino)methyl)isoindolin-1-one]: the half-maximal effective concentration (EC50) was found to be 21 nM.

In turn, `CC(C)(O)C(C1CC1)N1Cc2cccc(OCc3c(Cl)cnc4c3OCO4)c2C1=O` (single isomer, unassigned) [Compound 179, (R or S)-7-((6-chloro-[1,3]dioxolo[4,5-b]pyridin-7-yl)methoxy)-2-(1-cyclopropyl-2-hydroxy-2-methylpropyl)isoindolin-1-one] gave a 50% effective concentration (EC50) of 16 nM.

`CC(C)(O)C(C1CC1)N1Cc2cccc(OCc3ccnc4c3CCC4)c2C1=O` (single isomer, unassigned) [Compound 180, (R or S)-2-(1-cyclopropyl-2-hydroxy-2-methylpropyl)-7-((6,7-dihydro-5H-cyclopenta[b]pyridin-4-yl)methoxy)isoindolin-1-one] showed a 50% effective concentration (EC50) of 35 nM.

The values above are taken from US12679807B2 (MERCK SHARP & DOHME LLC, priority 2020, dated 2026).
